Laboratory results from US4339442A, “Gynosaponins, their use and a process for preparing the same” (priority 1980, dated 1982).

Experiments:
Format in all cases: cell-based, male wister rats
[1] = system: fat cells; test: Decomposition of the fat in the fat cell by ACTH; settings: ACTH 1 μg/ml + saponin 20 μg/ml, 37° C., two hours; for inhibition at 20 µg/mL: Rattus norvegicus, 2 h, read-out: Rate of inhibition
Protocol: (§1) Fat tissues were separated from the epididymides of male wister rats weighing 150 to 180 g each, and fat cells were obtained therefrom in accordance with the Rodbell's method [M. Rodbell, J. Biol. Chem., 239, 375 (1964)]. A small section was prepared from 4 g of the fat tissue, and placed in 10 ml. of Krebs-Ringer bicarbonate buffer containing 0.4 g of albumin, 10 mg of collagenase and 5 mg of glucose, and having a pH value of 7.4. It was heated at 37° C. for 50 minutes, and subjected to centrifugal separation at 300 rpm, whereby a floating fat cell layer was separated. Added into the fat cell were 10 ml. of the aforesaid buffer (pH 7.4), and the solution was carefully stirred to wash the fat cell, followed by centrifugal separation at 300 rpm for 30 seconds. This procedure was repeated twice, whereby the fat cells were washed perfectly, and these fat cells were used for the tests.
The fat cells obtained by treating with collagenase were suspended in Krebs-Ringer bicarbonate buffer (KRB) having a pH value of 7.4. Placed into a test tube were 0.3 ml. of the solution thus obtained (containing 100 mg of fat cells), 0.1 ml. of ACTH solution containing 1 μg of ACTH, 0.1 ml. of each saponin solution containing 500 μg of saponin, and 0.3 ml. of a 5% alubumin solution in KRB, and having a pH value adjusted to 7.4. They were heated at 37° C. for two hours, and the amount of the resulting free fatty acid was determined in accordance with the Dole's method [V. P. Dole, J. Biol. Chem., 35, 150 (1958)].
Namely, 3 ml. of Dole's extract were separated into the reaction system, and 1 ml. of a thymol blue solution was added thereinto. Nitrogen was blown into the resulting solution, and the solution was titrated with a 0.008 N aqueous solution of sodium hydroxide, while it was being stirred. The amount of the resulting free fatty acid was determined in accordance with a calibration curve.
The rate of inhibition against fat decomposition was obtained in accordance with the following equation: [formula] wherein A stands for the amount of the free fatty acid formed by addition of ACTH along in the amount of 1 μg/ml.; and B stands for the amount of the free fatty acid formed by addition of ACTH and saponin in the amount of 1 μg/ml. and 20 μg/ml., respectively.

[2] = system: fat cells; test: Synthesis of fat from glucose in fat cells; settings: 20 μg/ml; for Power for synthesis of neutral fat from glucose: 37° C., half an hour; for activation at 20 µg/mL: Rattus norvegicus, 0.5 h, none = 100, read-out: Rate of promotion
Protocol: as §1
^14 C-glucose having its carbon atoms marked with radioactivity was reacted upon fat cells, and a Geiger count was read to determine the amount of the glucose participating in the fat synthesis and incorporated into the fat cells as a neutral fat, whereby gynosaponins were tested for their effects on the power of the glucose for fat synthesis.
More specifically, the fat cells obtained by treating with collagenase were suspended in KRB, and 0.35 ml. of the resulting solution containing 100 mg of fat cells was placed into a test tube with 0.1 ml. of each saponin solution containing 20 μg of saponin, 0.5 ml. of a 5% albumin solution in KRB, containing 10 mM glucose and having a pH value of 7.4, and 0.05 ml. of a ^14 C-glucose solution which was a 0.5 μCi KRP solution having a pH value of 7.4 and containing 10 mM glucose. They were heated at 37° C. for half an hour, and after 5 ml. of Dole's extract were added and the whole was shaked for five minutes, 3 ml. of heptane and 2 ml. of water were added, and the whole was shaked for five minutes. 3 ml. of a heptane layer were separated, and after an alkaline ethanol solution (0.5 N sodium hydroxide solution, 50 % ethanol solution) was added in the amount of 3 ml., the whole was shaked for five minutes. Then, 1 ml. of an ethanol layer was separated, and 10 ml. of a toluene scintillation solution were added thereinto, followed by determination according to the method of Skipski et al. [Biochem. Biophys. Acta, 106, 386 (1965)].

[3] = system: fat cells; test: Decomposition by adrenalin of the fat in the fat cells; settings: adrenalin 1 μg/ml + saponin 20 μg/ml, 37° C., two hours; for inhibition at 20 µg/mL: Rattus norvegicus, 2 h, read-out: Rate of inhibition
Protocol: A small section was prepared from 4 g of the fat tissue, and placed in 10 ml. of Krebs-Ringer bicarbonate buffer containing 0.4 g of albumin, 10 mg of collagenase and 5 mg of glucose, and having a pH value of 7.4. […] Added into the fat cell were 10 ml. of the aforesaid buffer (pH 7.4), and the solution was carefully stirred to wash the fat cell, followed by centrifugal separation at 300 rpm for 30 seconds. This procedure was repeated twice, whereby the fat cells were washed perfectly, and these fat cells were used for the tests.
The fat cells obtained by treating with collagenase were suspended in Krebs-Ringer phosphate buffer (KRP) having a pH value of 7.4. Placed into a test tube were 0.3 ml. of the solution thus obtained, and containing 100 mg of fat cells, 0.1 ml. of an adrenalin solution containing 1 μg of adrenalin, 0.1 ml. of a saponin solution containing 20 μg of saponin, and 0.5 ml. of a 5% albumin solution in KRP, and having a pH value adjusted to 7.4. […] More specifically, 3 ml. of Dole's extract were placed in the reaction system, and after they were shaked for five minutes, 3 ml. of heptane were dispensed, and 1 ml. of a thymol blue solution was added thereinto. The resulting solution was titrated with a 0.008 N aqueous solution of sodium hydroxide, while it was being stirred with nitrogen, and the amount of the resulting free fatty acid was determined in accordance with a calibration curve.
The rate of inhibition was obtained in accordance with the equation shown at (1) above.

CC(=CCC[C@](C)(O[C@@H]1O[C@H](CO[C@@H]2OC[C@@H](O)[C@H](O)[C@H]2O)[C@@H](O)[C@H](O)[C@H]1O)[C@H]1CC[C@]2(C)[C@@H]1[C@H](O)C[C@@H]1[C@@]3(C)CC[C@H](O)C(C)(C)[C@@H]3CC[C@]12C)CO [gynosaponin U, 20S,26-Hydroxyprotopanaxadiol-20-O-[β-D-xylopyranosyl (1→6)-β-D-glucopyranoside]]
Free fatty acid formed by decomposition of fat [1]: 5.6 μ Eq/g | inhibition at 20 µg/mL [1]: 33% | Power for synthesis of neutral fat from glucose [2]: 13,100 cpm/g | activation at 20 µg/mL [2]: 61% | inhibition at 20 µg/mL [3]: 2% | Free fatty acid formed by decomposition of fat [3]: 13.8 μ Eq/g

CC(C)=CCC[C@](C)(O[C@@H]1O[C@H](CO[C@@H]2O[C@H](CO)[C@@H](O)[C@H](O)[C@H]2O)[C@@H](O)[C@H](O)[C@H]1O)[C@H]1CC[C@]2(C)[C@@H]1[C@H](O)C[C@@H]1[C@@]3(C)CC[C@H](O[C@@H]4O[C@H](CO[C@@H]5O[C@@H](C)[C@H](O)[C@@H](O)[C@H]5O)[C@@H](O)[C@H](O)[C@H]4O)C(C)(C)[C@@H]3CC[C@]12C [progynosapogenin A2, 20S-Protopanaxadiol-3-O-[α-L-rhamnopyranosyl (1→6)-β-D-glucopyranoside]-20-O-[β-D-glucopyranosyl (1→6)-β-D-glucopyranoside]]
Free fatty acid formed by decomposition of fat [1]: 6.2 μ Eq/g | inhibition at 20 µg/mL [1]: 26% | Power for synthesis of neutral fat from glucose [2]: 12,650 cpm/g | activation at 20 µg/mL [2]: 59% | inhibition at 20 µg/mL [3]: 8% | Free fatty acid formed by decomposition of fat [3]: 13.0 μ Eq/g

CC(=CCC[C@](C)(O[C@@H]1O[C@H](CO)[C@@H](O)[C@H](O)[C@H]1O)[C@H]1CC[C@]2(C)[C@@H]1[C@H](O)C[C@@H]1[C@@]3(C)CC[C@H](O)C(C)(C)[C@@H]3CC[C@]12C)CO [progynosapogenin O1, 20S,26-Hydroxyprotopanaxadiol-20-O-β-D-glucopyranoside]
Free fatty acid formed by decomposition of fat [1]: 5.9 μ Eq/g | inhibition at 20 µg/mL [1]: 30% | Power for synthesis of neutral fat from glucose [2]: 11,200 cpm/g | activation at 20 µg/mL [2]: 52% | inhibition at 20 µg/mL [3]: 11% | Free fatty acid formed by decomposition of fat [3]: 12.6 μ Eq/g
